Measurements: patent publication US7728028B2, “Substituted imidazoline compounds” (Gruenenthal GmbH, priority 2005, dated 2010)

Biological target: T1, human μ-opiate receptor (Homo sapiens, UniProt P35372)
T1 construct: purchased PerkinElmer Life Sciences, Zaventem, Belgium RB-HOM; host or cells: CHO-K1 cells (recombinant expression; membrane preparation)
Assay: Affinity for the human μ-opiate receptor ([3H]-naloxone displacement, SPA)
Conditions: Table 2, Examples 11-161; test substance 1 μmole/l; inhibition of specific [3H]-naloxone binding; CHO-K1 membranes; read-out: μ-Opioid receptor, % inhibition [1 μM]
Procedure, shortened: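 CHO-K1 membranes expressing the receptor, incubated 90 min at room temperature with 1 nmol/l [3H]-naloxone and WGA-SPA beads in 50 mmol/l Tris-HCl with 0.06% BSA. Non-specific binding defined with 100 μmol/l naloxone. Value is % inhibition of specific binding at 1 μmol/l test substance.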

T1 sequence (P35372 whole entry): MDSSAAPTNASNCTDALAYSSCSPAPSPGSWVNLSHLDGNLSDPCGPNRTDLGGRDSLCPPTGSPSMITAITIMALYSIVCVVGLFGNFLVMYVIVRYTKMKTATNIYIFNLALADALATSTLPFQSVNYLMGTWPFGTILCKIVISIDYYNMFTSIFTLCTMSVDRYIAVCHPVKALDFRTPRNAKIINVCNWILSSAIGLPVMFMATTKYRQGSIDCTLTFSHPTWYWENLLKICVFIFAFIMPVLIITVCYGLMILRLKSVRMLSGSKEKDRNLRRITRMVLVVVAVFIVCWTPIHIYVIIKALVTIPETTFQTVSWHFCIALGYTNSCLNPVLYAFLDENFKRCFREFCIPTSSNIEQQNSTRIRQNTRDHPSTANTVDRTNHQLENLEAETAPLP

SMILES	inhibition at 1 µM [%]
COC(=O)C1(C)N=CN(C2CCCCC2)C1CC1CCC(C(c2cccc(F)c2)N(C)C)CC1 (stereo not drawn) [Example 104, 1-cyclohexyl-5-{4-[dimethylamino-(3-fluorophenyl)-methyl]-cyclohexylmethyl}-4-methyl-4,5-dihydro-1H-imidazole-4-carboxylic acid methyl ester]	93
CCCC1(C(=O)OC)N=CN(C2CCCCC2)C1CC1CCC(C(c2ccc(F)cc2)N(C)C)CC1 (stereo not drawn) [Example 105, 1-cyclohexyl-5-{4-[dimethylamino-(4-fluorophenyl)-methyl]-cyclohexylmethyl}-4-propyl-4,5-dihydro-1H-imidazole-4-carboxylic acid methyl ester]	95
COC(=O)C1(CCSC)N=CN(C2CCCCC2)C1CC1CCC(C(c2ccc(F)cc2)N(C)C)CC1 (stereo not drawn) [Example 106, 1-cyclohexyl-5-{4-[dimethylamino-(4-fluorophenyl)-methyl]-cyclohexylmethyl}-4-(2-methylsulfanyl-ethyl)-4,5-dihydro-1H-imidazole-4-carboxylic acid methyl ester]	92
COC(=O)C1(C)N=CN(C2CCCCC2)C1CC1CCC(C(c2ccc(F)cc2)N(C)C)CC1 (stereo not drawn) [Example 107, 1-cyclohexyl-5-{4-[dimethylamino-(4-fluorophenyl)-methyl]-cyclohexylmethyl}-4-methyl-4,5-dihydro-1H-imidazole-4-carboxylic acid methyl ester]	87
CCCC1(C(=O)OC)N=CN(C2CCCCC2)C1CC1CCC(C(CCc2ccccc2)N(C)C)CC1 (stereo not drawn) [Example 108, 1-cyclohexyl-5-[4-(1-dimethylamino-3-phenylpropyl)-cyclohexylmethyl]-4-propyl-4,5-dihydro-1H-imidazole-4-carboxylic acid methyl ester]	86
COC(=O)C1(CCSC)N=CN(C2CCCCC2)C1CC1CCC(C(CCc2ccccc2)N(C)C)CC1 (stereo not drawn) [Example 109, 1-cyclohexyl-5-[4-(1-dimethylamino-3-phenylpropyl)-cyclohexylmethyl]-4-(2-methylsulfanyl-ethyl)-4,5-dihydro-1H-imidazole-4-carboxylic acid methyl ester]	87
COC(=O)C1(C)N=CN(C2CCCCC2)C1CC1CCC(C(CCc2ccccc2)N(C)C)CC1 (stereo not drawn) [Example 110, 1-cyclohexyl-5-[4-(1-dimethylamino-3-phenylpropyl)-cyclohexylmethyl]-4-methyl-4,5-dihydro-1H-imidazole-4-carboxylic acid methyl ester]	67
CCCN1C=NC(CCC)(C(=O)OC)C1CC1CCC(C(c2cccc(F)c2)N(C)C)CC1 (stereo not drawn) [Example 111, 5-{4-[dimethylamino-(3-fluorophenyl)-methyl]-cyclohexylmethyl}-1,4-dipropyl-4,5-dihydro-1H-imidazole-4-carboxylic acid methyl ester]	90
CCCN1C=NC(CCSC)(C(=O)OC)C1CC1CCC(C(c2cccc(F)c2)N(C)C)CC1 (stereo not drawn) [Example 112, 5-{4-[dimethylamino-(3-fluorophenyl)-methyl]-cyclohexylmethyl}-4-(2-methylsulfanyl-ethyl)-1-propyl-4,5-dihydro-1H-imidazole-4-carboxylic acid methyl ester]	95
COC(=O)C1(Cc2ccc(Cl)cc2)N=CN(Cc2ccccc2)C1CC1CCC(C(c2ccc(Cl)cc2)N(C)C)CC1 (stereo not drawn) [Example 113, 1-benzyl-4-(4-chlorobenzyl)-5-{4-[(4-chlorophenyl)-dimethylaminomethyl]-cyclohexylmethyl}-4,5-dihydro-1H-imidazole-4-carboxylic acid methyl ester]	92
CCCCC1(C(=O)OC)N=CN(Cc2ccccc2)C1CC1CCC(C(c2ccc(Cl)cc2)N(C)C)CC1 (stereo not drawn) [Example 114, 1-benzyl-4-butyl-5-{4-[(4-chlorophenyl)-dimethylaminomethyl]-cyclohexylmethyl}-4,5-dihydro-1H-imidazole-4-carboxylic acid methyl ester]	86
COC(=O)CCC1(C(=O)OC)N=CN(C2CCCCC2)C1C1CCC(C(c2cccc(F)c2)N(C)C)CC1 (stereo not drawn) [Example 115, 1-cyclohexyl-5-{4-[dimethylamino-(3-fluorophenyl)-methyl]-cyclohexyl}-4-(2-methoxycarbonylethyl)-4,5-dihydro-1H-imidazole-4-carboxylic acid methyl ester]	98
COC(=O)C1(CSCc2ccccc2)N=CN(C2CCCCC2)C1C1CCC(C(c2cccc(F)c2)N(C)C)CC1 (stereo not drawn) [Example 116, 4-benzylsulfanylmethyl-1-cyclohexyl-5-{4-[dimethylamino-(3-fluorophenyl)-methyl]-cyclohexyl}-4,5-dihydro-1H-imidazole-4-carboxylic acid methyl ester]	101
CCCN1C=NC(C)(C(=O)OC)C1CC1CCC(C(c2cccc(F)c2)N(C)C)CC1 (stereo not drawn) [Example 117, 5-{4-[dimethylamino-(3-fluorophenyl)-methyl]-cyclohexylmethyl}-4-methyl-1-propyl-4,5-dihydro-1H-imidazole-4-carboxylic acid methyl ester]	88
CCCN1C=NC(CCC)(C(=O)OC)C1CC1CCC(C(c2ccc(F)cc2)N(C)C)CC1 (stereo not drawn) [Example 118, 5-{4-[dimethylamino-(4-fluorophenyl)-methyl]-cyclohexylmethyl}-1,4-dipropyl-4,5-dihydro-1H-imidazole-4-carboxylic acid methyl ester]	87
CCCN1C=NC(CCSC)(C(=O)OC)C1CC1CCC(C(c2ccc(F)cc2)N(C)C)CC1 (stereo not drawn) [Example 119, 5-{4-[dimethylamino-(4-fluorophenyl)-methyl]-cyclohexylmethyl}-4-(2-methylsulfanylethyl)-1-propyl-4,5-dihydro-1H-imidazole-4-carboxylic acid methyl ester]	90
CCCN1C=NC(CCC)(C(=O)OC)C1CC1CCC(C(CCc2ccccc2)N(C)C)CC1 (stereo not drawn) [Example 120, 5-[4-(1-dimethylamino-3-phenylpropyl)-cyclohexylmethyl]-1,4-dipropyl-4,5-dihydro-1H-imidazole-imidazole-4-carboxylic acid methyl ester]	62
CCCN1C=NC(CCSC)(C(=O)OC)C1CC1CCC(C(CCc2ccccc2)N(C)C)CC1 (stereo not drawn) [Example 121, 5-[4-(1-dimethylamino-3-phenylpropyl)-cyclohexylmethyl]-4-(2-methylsulfanylethyl)-1-propyl-4,5-dihydro-1H-imidazole-4-carboxylic acid methyl ester]	77
CCCCN1C=NC(CCSC)(C(=O)OC)C1CC1CCC(C(c2cccc(F)c2)N(C)C)CC1 (stereo not drawn) [Example 123, 1-butyl-5-{4-[dimethylamino-(3-fluorophenyl)-methyl]-cyclohexylmethyl}-4-(2-methylsulfanylethyl)-4,5-dihydro-1H-imidazole-4-carboxylic acid methyl ester]	98
CCCCN1C=NC(C)(C(=O)OC)C1CC1CCC(C(c2cccc(F)c2)N(C)C)CC1 (stereo not drawn) [Example 124, 1-butyl-5-{4-[dimethylamino-(3-fluorophenyl)-methyl]-cyclohexylmethyl}-4-methyl-4,5-dihydro-1H-imidazole-4-carboxylic acid methyl ester]	95
CCCCN1C=NC(CCC)(C(=O)OC)C1CC1CCC(C(c2ccc(F)cc2)N(C)C)CC1 (stereo not drawn) [Example 125, 1-butyl-5-{4-[dimethylamino-(4-fluorophenyl)-methyl]-cyclohexylmethyl}-4-propyl-4,5-dihydro-1H-imidazole-4-carboxylic acid methyl ester]	91
CCCCN1C=NC(CCSC)(C(=O)OC)C1CC1CCC(C(c2ccc(F)cc2)N(C)C)CC1 (stereo not drawn) [Example 126, 1-butyl-5-{4-[dimethylamino-(4-fluorophenyl)-methyl]-cyclohexylmethyl}-4-(2-methylsulfanyl-ethyl)-4,5-dihydro-1H-imidazole-4-carboxylic acid methyl ester]	98
CCCCN1C=NC(CCC)(C(=O)OC)C1CC1CCC(C(CCc2ccccc2)N(C)C)CC1 (stereo not drawn) [Example 127, 1-butyl-5-[4-(1-dimethylamino-3-phenylpropyl)-cyclohexylmethyl]-4-propyl-4,5-dihydro-1H-imidazole-4-carboxylic acid methyl ester]	74
CCCCN1C=NC(CCSC)(C(=O)OC)C1CC1CCC(C(CCc2ccccc2)N(C)C)CC1 (stereo not drawn) [Example 128, 1-butyl-5-[4-(1-dimethylamino-3-phenylpropyl)-cyclohexylmethyl]-4-(2-methylsulfanylethyl)-4,5-dihydro-1H-imidazole-4-carboxylic acid methyl ester]	83
CCCC1(C(=O)OC)N=CN(CCc2ccccc2)C1CC1CCC(C(c2cccc(F)c2)N(C)C)CC1 (stereo not drawn) [Example 129, 5-{4-[dimethylamino-(3-fluorophenyl)-methyl]-cyclohexylmethyl}-1-phenethyl-4-propyl-4,5-dihydro-1H-imidazole-4-carboxylic acid methyl ester]	93
COC(=O)C1(CCSC)N=CN(CCc2ccccc2)C1CC1CCC(C(c2cccc(F)c2)N(C)C)CC1 (stereo not drawn) [Example 130, 5-{4-[dimethylamino-(3-fluorophenyl)-methyl]-cyclohexylmethyl}-4-(2-methylsulfanylethyl)-1-phenethyl-4,5-dihydro-1H-imidazole-4-carboxylic acid methyl ester]	97
COC(=O)C1(C)N=CN(CCc2ccccc2)C1CC1CCC(C(c2cccc(F)c2)N(C)C)CC1 (stereo not drawn) [Example 131, 5-{4-[dimethylamino-(3-fluorophenyl)-methyl]-cyclohexylmethyl}-4-methyl-1-phenethyl-4,5-dihydro-1H-imidazole-4-carboxylic acid methyl ester]	100
